In general, LD50 refers to the dose expected to kill half of the subjects tested.

Data on 19 molecules can be found in US4740503A, “Novel 5-fluoro-2'-deoxyuridine derivatives and salts thereof, process for producing the same, and antitumor agents containing the same” (priority 1984, dated 1988).

One data set has as its system Ehrlich carcinoma cells. In words: Antitumor effect in Ehrlich carcinoma-bearing mice (tumor weight ratio to control). In kind it is in vivo, ddY strain mice. Particulars: i.p. once daily for 6 days, tumor weight on day 12 vs saline control.
The nature of data set [1]: Acute toxicity test (single intraperitoneal administration, LD50). The note with it: mouse, in vivo, ip; single i.p. administration, male ddY mice, death judged on 14th day. The method, then: To ddY mice (male, 5 weeks old, 5 mice per group) was intraperitoneally administered the test compound dissolved or suspended in a physiological saline solution only one time. On the 14th day after the administration, the death of mouse was judged, and the LD50 value was calculated.

For data set [2] the following is noted: in vitro, compared with 5-Fu; cited from earlier work.
For data set [3] the following is noted: cited from earlier work.
A further data set concerns nucleoside phosphorylase. Particulars: cited from earlier work.
The conditions of data set [4]: in vivo; cited from earlier work.
The next data set relates to cells. Particulars: FduMP per se; cited from earlier work.
The subject of a further data set is thymidylate synthetase. Particulars: in cells, FduMP formed from FudR; cited from earlier work.

Where “and” joins values, the source holds several entries; their conditions need not be identical. Equal values may be shown once.

Method for Ehrlich carcinoma cells: Eight ddY strain mice (male, 5 weeks old, weight: about 25 g) per group were used, and 5×10^6 Ehrlich carcinoma cells were inoculated subcutaneously into the inguinal region of the mice. The test compound dissolved or suspended in a physiological saline solution was intraperitoneally administered to the mice once daily for 6 days from the day after the inoculation. As the control compound, FudR was used. To the control group was administered only the physiological saline solution.

Consider `CCCCCCCCCCCCCCCC(=O)OC[C@H]1O[C@@H](n2cc(F)c(=O)[nH]c2=O)C[C@@H]1OP(=O)([O-])OCC[n+]1cnc[nH]1` [compound 10], for which the entries for the “Effect (T/C (%))” value in the data set with Ehrlich carcinoma cells (1 μmole/kg/day), in the data set on Ehrlich carcinoma cells (3 μmole/kg/day) and with Ehrlich carcinoma cells (10 μmole/kg/day) were 42%, 36% and 18%, respectively.
Consider `CCCCCCCCCCCC(=O)OC[C@H]1O[C@@H](n2cc(F)c(=O)[nH]c2=O)C[C@@H]1OP(=O)([O-])OCC[N+](C)(C)C` [Test compound 7], for which, in data set [1], the LD50 at 336 h was over 300 mg/kg.
As to `O=c1[nH]c(=O)n([C@H]2C[C@H](O)[C@@H](CO)O2)cc1F` [FudR, 5-fluoro-2'-deoxy-β-uridine], the cytocidal activity entry in data set [2] is on record as “stronger cytocidal activity than 5-fluorouracil”. In addition, in the data set with Ehrlich carcinoma cells (3 μmole/kg/day), the “Effect (T/C (%))” value came out at 87%. The “Effect (T/C (%))” value in the data set with Ehrlich carcinoma cells (10 μmole/kg/day) was 67% and 77%. Moreover, the “Effect (T/C (%))” value with Ehrlich carcinoma cells (30 μmole/kg/day) is 42%. Besides, the clinical toxicity entry in data set [3] is recorded as “high toxicity”. The clinical efficacy result in data set [3] (compared with 5-Fu) was “only equivalent in efficacy to 5-Fu”. Also, in the data set on nucleoside phosphorylase, the “cleavage by nucleoside phosphorylase” value is listed as “easily cleaved by nucleoside phosphorylase”. Besides, in data set [4], the excretion result is reported as “rapidly excreted in vivo”, the metabolism result is “metabolized to α-fluoro-β-alanine through 5-Fu” and the persistency result is “poor in persistency”.
Turning to “5-Fluoro-2'-deoxy-5'-O-palmitoyl-β-uridine-3'-[2-(2-hydroxyethyldimethylammonio)ethyl]phosphate.hydrate [Test compound 11]”, the “Effect (T/C (%))” value is 38% with Ehrlich carcinoma cells (1 μmole/kg/day) and 17% in the data set with Ehrlich carcinoma cells (3 μmole/kg/day).
With “5-Fluoro-2'-deoxy-5'-O-palmitoyl-β-uridine-3'-[2-(2H-1,2,4-triazol-1-io)ethyl]phosphate.hydrate [Test compound 10]”, the “Effect (T/C (%))” value came to 66% in the data set on Ehrlich carcinoma cells (3 μmole/kg/day) and 34% with Ehrlich carcinoma cells (10 μmole/kg/day).
In turn, `CCCCCCCCCCCCCCCCCC(=O)OC[C@H]1O[C@@H](n2cc(F)c(=O)[nH]c2=O)C[C@@H]1OP(=O)([O-])OCC[N+](C)(C)C` [Test compound 6] displayed an LD50 at 336 h in data set [1] of 200 mg/kg.
With “5-Fluoro-2'-deoxy-5'-O-hexanoyl-β-uridine-3'-(2-trimethylammonioethyl)phosphate.hydrate [Test compound 9]”, the “Effect (T/C (%))” value was 38% with Ehrlich carcinoma cells (3 μmole/kg/day) and 21% in the data set with Ehrlich carcinoma cells (10 μmole/kg/day).
Take `CCCCCC(=O)OC[C@H]1O[C@@H](n2cc(F)c(=O)[nH]c2=O)C[C@@H]1OP(=O)([O-])OCC[N+](C)(C)C` [compound 9]: the “Effect (T/C (%))” value is 50% in the data set with Ehrlich carcinoma cells (1 μmole/kg/day) and 32% in the data set with Ehrlich carcinoma cells (3 μmole/kg/day). Also, the LD50 at 336 h in data set [1] came to 500 mg/kg.
`CCCCCCCC/C=C\CCCCCCCC(=O)O[C@H]1C[C@H](n2cc(F)c(=O)[nH]c2=O)O[C@@H]1COP(=O)([O-])OCC[N+](C)(C)C` [Test compound 3] yielded an LD50 at 336 h in data set [1] of 200 mg/kg.
Regarding “5-Fluoro-2'-deoxy-5'-O-palmitoyl-β-uridine-3'-{2-[4-(4-methyl)morpholinio]ethyl}phosphate.hydrate [Test compound 12]”, the “Effect (T/C (%))” value with Ehrlich carcinoma cells (1 μmole/kg/day) was determined as 24%; in the data set with Ehrlich carcinoma cells (3 μmole/kg/day), 10%.
In the case of `CCCCCCCCCCCCCCCC(=O)O[C@H]1C[C@H](n2cc(F)c(=O)[nH]c2=O)O[C@@H]1COP(=O)([O-])OCC[N+](C)(C)C` [compound 1], the “Effect (T/C (%))” value was 47% with Ehrlich carcinoma cells (3 μmole/kg/day), 19% in the data set on Ehrlich carcinoma cells (10 μmole/kg/day) and 15% in the data set with Ehrlich carcinoma cells (30 μmole/kg/day). This molecule also came in with a median lethal dose (LD50) at 336 h in data set [1] of 208 mg/kg.
As to `CCCCCCCCCCCCCCCC(=O)OC[C@H]1O[C@@H](n2cc(F)c(=O)[nH]c2=O)C[C@@H]1OP(=O)([O-])OCC[N+](C)(C)CCO` [compound 11], the “Effect (T/C (%))” value in the data set on Ehrlich carcinoma cells (1 μmole/kg/day) is on record as 41%; in the data set with Ehrlich carcinoma cells (3 μmole/kg/day), 44%; in the data set on Ehrlich carcinoma cells (10 μmole/kg/day), 22%.
On to `O=c1[nH]c(=O)n([C@H]2C[C@H](O)[C@@H](COP(=O)(O)O)O2)cc1F` [FduMP, 5-fluoro-2'-deoxyuridine-5'-monophosphate], for which the uptake by cells entry in the data set on cells is listed as “not taken up by cells”. In the data set with thymidylate synthetase, the thymidylate synthetase inhibition entry is “inhibits thymidylate synthetase”.
Regarding “5-Fluoro-2'-deoxy-3'-O-palmitoyl-β-uridine-5'-[2-(4-dimethylaminopyridinio)ethyl]phosphate.hydrate [Test compound 4]”, the “Effect (T/C (%))” value in the data set on Ehrlich carcinoma cells (3 μmole/kg/day) amounted to 22%; in the data set with Ehrlich carcinoma cells (10 μmole/kg/day), 19%.
Take `CCCCCCCCCCCCCCCC(=O)OC[C@H]1O[C@@H](n2cc(F)c(=O)[nH]c2=O)C[C@@H]1OP(=O)([O-])OCC[N+]1(C)CCOCC1` [compound 12]: the entries for the “Effect (T/C (%))” value with Ehrlich carcinoma cells (1 μmole/kg/day) and with Ehrlich carcinoma cells (3 μmole/kg/day) were 46% and 28%, respectively.
Taken in the same sequence, the figures for “5-Fluoro-2'-deoxy-5'-O-palmitoyl-β-uridine-3'-[2-(1-pyrazolyl)ethyl]phosphate.hydrate [Example 7]” were 40% and 27%.
Consider `CCCCCCCCC=CCCCCCCCC(=O)OC[C@H]1O[C@@H](n2cc(F)c(=O)[nH]c2=O)C[C@@H]1OP(=O)([O-])OCC[N+](C)(C)C` [compound 8], for which the “Effect (T/C (%))” value with Ehrlich carcinoma cells (1 μmole/kg/day) was 50%; with Ehrlich carcinoma cells (3 μmole/kg/day) it was 28%. The same molecule displayed an LD50 at 336 h in data set [1] of 300 mg/kg.
`CCCCCCCCCCCCCCCCCC(=O)O[C@H]1C[C@H](n2cc(F)c(=O)[nH]c2=O)O[C@@H]1COP(=O)([O-])OCC[N+](C)(C)C` [Test compound 2] yielded an LD50 at 336 h in data set [1] of 188 mg/kg.
The same measure, in the same setting: next, `CCCCCCCCCCCCCCCC(=O)OC[C@H]1O[C@@H](n2cc(F)c(=O)[nH]c2=O)C[C@@H]1OP(=O)([O-])OCC[N+](C)(C)C` [Test compound 5]: over 200 mg/kg.
